Test results as given in US20160304557A1, “Method for preventing or treating heart diseases by using a composition containing an isolated peptide” (Tunghai University, priority 2014, published 2016).

How the values were obtained:
[1] = test system: p38α protein; test: Western blot of p38α protein in heart tissue of high-fat diet mice; type: in vivo, C57BL/6 mice; details: groups 3 to 5 (5, 10, 25 mg/kg/day intraperitoneally) versus group 2
Experimental: (§1) The male C57BL/6 mice at the age of 6 weeks were divided into 5 groups for 8 mice in each group. The each group of mice were feed at 24±2° C. of temperature, humidity of 55±10% and 12/12 light cycle for 8 weeks, wherein the group 1 was control group on a normal diet (PMI Nutrition International, Brentwood, Mo., USA) and injected 0.9% saline intraperitoneally; the group 2 was fed high-fat diet to induce the mice into heart hypertrophy model and injected 0.9% saline intraperitoneally; the group 3 was fed high-fat diet and the peptide of SEQ ID NO.:1 was injected intraperitoneally with the dose of 5 mg/kg/day; the group 4 was fed high-fat diet and the peptide of SEQ ID NO.:1 was injected intraperitoneally with the dose of 10 mg/kg/day; the group 5 was fed high-fat diet and the peptide of SEQ ID NO.:1 was injected intraperitoneally with the dose of 25 mg/kg/day. […]
(§2) Protein concentration of the extract was determined by Lowry's protein assay method. […]
(§3) The protein extraction of the mice heart tissues from the each group in example 2 were processed by the western blot method in example 3 to observe the expressions of p38α protein and JNK. The results were shown at FIGS. 8 and 9, wherein the tubulin was used for an internal control in FIG. 8 and the expression levels of p38α protein and JNK were calculated basing on the expression level of tubulin in each figure of FIG. 9.

[2] = test system: STAT-3, IL-6, MEK-5 and ERK-5; test: Western blot of related signal transduction proteins of heart hypertrophy in heart tissue of high-fat diet mice; type: in vivo, C57BL/6 mice; details: STAT-3, IL-6, MEK-5, ERK-5, groups 3 to 5 (5, 10, 25 mg/kg/day intraperitoneally) versus group 2
Experimental: (§4) The male C57BL/6 mice at the age of 6 weeks were divided into 5 groups for 8 mice in each group. […]
as §2
The protein extraction of the mice heart tissues from the each group in example 2 were processed by the western blot method in example 3 to observe the expressions of the related signal transduction proteins of heart hypertrophy including: STAT-3, IL-6, MEK-5 and ERK-5. The results were shown at FIGS. 6 and 7, wherein the tubulin was used for an internal control in FIG. 6 and the expression levels of the related signal transduction proteins of heart hypertrophy in the mice heart tissues from each group was calculated basing on the expression level of tubulin in FIG. 7.

[3] = test system: BNP; test: Western blot of BNP in heart tissue of high-fat diet mice; type: in vivo, C57BL/6 mice; details: groups 3 to 5 (5, 10, 25 mg/kg/day intraperitoneally) in comparison of group 2
Experimental: as §4, §2
(§5) The protein extraction of the mice heart tissues from the each group in example 2 were processed by the western blot method in example 3 to observe the expressions of the indicator of heart hypertrophy and heart failure. The results were shown at FIGS. 12 and 13, wherein the tubulin was used for an internal control in FIG. 12 and the expression levels of the ANP and BNP in the mice heart tissues from the each group was calculated basing on the expression level of tubulin in each figures of FIG. 13.

[4] = test system: nuclear factor of activated T-cells C3 (NFTA-C3); test: Western blot of NFTA-C3 in heart tissue of high-fat diet mice; type: in vivo, C57BL/6 mice; details: groups 3 to 5 (5, 10, 25 mg/kg/day intraperitoneally) in comparison of group 2
Experimental: as §4, §2
(§6) The protein extraction of the mice heart tissues from the each group in example 2 were processed by the western blot method in example 3 to observe the expressions of nuclear factor of activated T-cells C3 (NFTA-C3) and calcineurin in the mice heart tissues from the each group. The results were shown at FIGS. 4 and 5, wherein the tubulin was used for an internal control in FIG. 4 and the expression levels of NFTA-C3 and calcineurin were calculated basing on the expression level of tubulin in each figure of FIG. 5.

[5] = test system: calcineurin; test: Western blot of calcineurin in heart tissue of high-fat diet mice; type: in vivo, C57BL/6 mice; details: groups 3 to 5 (5, 10, 25 mg/kg/day intraperitoneally) in comparison of group 2
Experimental: as §4, §2, §6

[6] = test system: JNK; test: Western blot of JNK in heart tissue of high-fat diet mice; type: in vivo, C57BL/6 mice; details: groups 3 to 5 (5, 10, 25 mg/kg/day intraperitoneally) versus group 2
Experimental: as §1, §2, §3

[7] = test system: Bcl-2 protein; test: Western blot of Bcl-2 in heart tissue of high-fat diet mice; type: in vivo, C57BL/6 mice; details: groups 3 to 5 (5, 10, 25 mg/kg/day intraperitoneally) in comparison of group 2 (high-fat diet, saline)
Experimental: as §4, §2
as §3, with “related apoptosis regulatory proteins in the mice heart tissues from the each group.” for “p38α protein and JNK.”, “2” for “8”, “3,” for “9,”, “related apoptosis regulatory proteins” for “p38α protein and JNK”, “3.” for “9.”

[8] = test system: ANP; test: Western blot of ANP in heart tissue of high-fat diet mice; type: in vivo, C57BL/6 mice; details: groups 3 to 5 (5, 10, 25 mg/kg/day intraperitoneally) in comparison of group 2
Experimental: as §4, §2, §5

[9] = test system: FGF-2, ERK-1, UPA, MMP-2 and MMP-9; test: Western blot of related proteins of cardiac fibrosis pathway in heart tissue of high-fat diet mice; type: in vivo, C57BL/6 mice; details: MMP-2, MMP-9, groups 3 to 5 (5, 10, 25 mg/kg/day intraperitoneally) versus group 2
Experimental: as §4, §2
The protein extraction of the mice heart tissues from the each group in example 2 were processed by the western blot method in example 3 to observe the expressions of the related proteins of cardiac fibrosis pathway including: FGF-2, ERK-1, UPA, MMP-2 and MMP-9. The results were shown at FIGS. 10 and 11, wherein the tubulin was used for an internal control in FIG. 10 and the expression levels of FGF-2, ERK-1, UPA, MMP-2 and MMP-9 in the mice heart tissues from the each group was calculated basing on the expression level of tubulin in each figures of FIG. 11.

[10] = test system: cytochrome C; test: Western blot of cytochrome C in heart tissue of high-fat diet mice; type: in vivo, C57BL/6 mice; details: groups 3 to 5 (5, 10, 25 mg/kg/day intraperitoneally) in comparison of group 2
Experimental: as §4, §2
as §3, with “related apoptosis regulatory proteins in the mice heart tissues from the each group.” for “p38α protein and JNK.”, “2” for “8”, “3,” for “9,”, “related apoptosis regulatory proteins” for “p38α protein and JNK”, “3.” for “9.”

[11] = test system: myocardial cells; test: H&E stained section of heart tissues of high-fat diet mice; type: in vivo; details: groups 3 and 4 (15 and 25 mg/kg/day intraperitoneally) in comparison with group 2
Experimental: The male C57BL/6 mice at the age of 6 weeks were divided into 5 groups for 8 mice in each group. The each group of mice were feed at 24±2° C. of temperature, humidity of 55±10% and 12/12 light cycle for 8 weeks, wherein the group 1 was control group on a normal diet (PMI Nutrition International, Brentwood, Mo., USA) and injected 0.9% saline intraperitoneally; the group 2 was fed high-fat diet to induce the mice into heart hypertrophy model and injected 0.9% saline intraperitoneally; the group 3 was fed high-fat diet and the peptide of SEQ ID NO.:1 was injected intraperitoneally with the dose of 5 mg/kg/day; the group 4 was fed high-fat diet and the peptide of SEQ ID NO.:1 was injected intraperitoneally with the dose of 10 mg/kg/day; the group 5 was fed high-fat diet and the peptide of SEQ ID NO.:1 was injected intraperitoneally with the dose of 25 mg/kg/day. The injection period of each group of mice was between the third week to the sixth week of feeding period. The high-fat diet contained 60% of energy as fat.
The feeding method was the same with example 1. Mice were divided into 4 groups for feeding at different conditions. The intraperitoneal injection was performed between the third week and the sixth week of the feeding period. […]

[12] = test system: caspase-3; test: Western blot of activated caspase-3 in heart tissue of high-fat diet mice; type: in vivo, C57BL/6 mice; details: groups 3 to 5 (5, 10, 25 mg/kg/day intraperitoneally) in comparison of group 2
Experimental: as §4, §2
as §3, with “related apoptosis regulatory proteins in the mice heart tissues from the each group.” for “p38α protein and JNK.”, “2” for “8”, “3,” for “9,”, “related apoptosis regulatory proteins” for “p38α protein and JNK”, “3.” for “9.”

SEQ ID NO.: 1: isolated peptide which amino acid sequence is SEQ ID NO.: 1; extracted from organisms, separated by hydrolysis or chemical synthesis (VHVV)
expression levels of p38α protein in the heart cells [1]: significantly lower | expression levels of the related signal transduction proteins of heart hypertrophy in the heart tissues [2]: obviously lower | expression levels of BNP in the heart tissues [3]: obviously decreased | expression levels of NFTA-C3 in the heart cells [4]: obviously decreased | expression levels of calcineurin in the heart cells [5]: obviously decreased | expression levels of JNK in the heart cells [6]: significantly lower | expression levels of Bcl-2 in the heart cell [7]: obviously increased | expression levels of ANP in the heart tissues [8]: obviously decreased | related proteins of cardiac fibrosis pathway in mice heart tissues [9]: obviously lower | expression levels of cytochrome C in the heart cell [10]: obviously decreased | arrangement of myocardial cells (H&E stained heart sections) [11]: more orderly and closely | expression levels of activated caspase-3 in the heart cell [12]: obviously decreased
